Source: US10821195B2, “Compositions for therapeutics, targeted PET imaging and methods of their use” (Memorial Sloan Kettering Cancer Center, priority 2015, dated 2020)
Several values for one entry are separate records, joined by “and”; a condition that tells them apart may be missing. Equal values may be shown once.

What was measured:
[1] = Stability of ^89Zr complexes in human serum at 37° C. for 7 d (ITLC, SEC); conditions: for stability in human serum (ITLC and SEC): bare ligand complexes, one week
Procedure: Seven day old samples of the Zr-ligand complexes were run down a size exclusion column to differentiate protein and ligand.
Serum stability and immunoreactivity of ^89Zr-complexes were evaluated. To determine the stability in serum, ^89Zr-complexes were incubated in human serum at 37° C. for 7 d. The percentage of intact species was monitored by ITLC (Table 9).
^89Zr-ligand and ^89Zr-ligand-antibody complexes were prepared according to the radiolabeling protocol as described above. For each ^89Zr complex, samples were made consisting of 900 μL human serum and 100 μL of the ^89Zr species and were placed in a heat block at 37° C. with agitation. Samples were monitored using radio-TLC before being added to the serum and then after 1 week of incubation. The stability of the complexes was measured as the percentage of ^89Zr that was retained at the origin of the ITLC strip and therefore still intact.

FIG. 2 = assay: FIG. 2
Source text: Table printed on a drawing sheet, FIG. 2
(§1) In contrast, ^89Zr-HOPO is shown to be approximately impervious to the EDTA. […] This represents a significant improvement in the stability of the Zr-ligand complex at lower pH. […] Initially activity is seen in the bladder, gall bladder, and intestines.
First reader's note: Cell hatching encodes the percent-intact class given in the legend; the values show stability of the radiometal-chelator complexes against EDTA transchelation.

[2] = EDTA transchelation challenge of ^89Zr complexes; type: physicochemical; conditions: 50-fold excess of EDTA, 37° C., various pHs, 7 days
Source text: as §1

[3] = Biodistribution and clearance of ^89Zr-HOPO and ^89Zr-DFO in healthy mice; type: in vivo, healthy athymic nude mice; parameters: biodistribution Spleen / biodistribution Stomach / biodistribution Large Intestine / biodistribution Small Intestine / biodistribution Kidney / biodistribution Bladder / biodistribution Muscle / biodistribution Bone / biodistribution Tail / biodistribution Blood / biodistribution Heart / biodistribution Lung / biodistribution Gall Bladder / biodistribution Liver: unit not given here; conditions: for clearance route: healthy mice
Source text: Significant uptake of ^89Zr-HOPO occurs in the gall bladder and intestines as well as the kidney. […] As ^89Zr-DFO is cleared exclusively through the kidneys and not through the hepatobiliary system, it is excreted from the body faster than ^89Zr-HOPO, as evidenced by the blood clearance curve (FIG. 10). While not wishing to be bound to theory, upon conjugation to an antibody, the pharmacokinetics of a ^89Zr-HOPO complex comprising ^89Zr-HOPO and an antibody can be superseded by those of the biomacromolecule, meaning that a difference in clearance pathways between ^89Zr-HOPO and ^89Zr-DFO should not be a concern. However, over the short circulation time of the Zr-ligand complexes, neither DFO nor HOPO show any signs of instability or bone accumulation.

[4] = Partition coefficients of ^89Zr complexes at pH 7.4; type: physicochemical
Source text: Without having to be bound to any theory, the difference in clearance pathways between the two complexes is the difference in their partitions coefficients.

CC(=O)N(O)CCCCCNC(=O)CCC(=O)N(O)CCCCCNC(=O)CCC(=O)N(O)CCCCCNC(=S)Nc1ccc(N=C=S)cc1 (89Zr complex, metal not drawn) [p-SCN-Bn-DFO]
percentage of intact species, Ligand Only ([1]; ^89Zr-ligand complex, human serum, 7 d, ITLC): 97.7±0.2%

CC(=O)N1CCCCCNC(=O)CCC(=O)N2CCCCCNC(=O)CCC(=O)N(CCCCCN)[O][89Zr+]([O]1)[O]2 [^89Zr-DFO]
% INTACT STARTING SPECIES BY INCUBATION TIME | 1 h (FIG. 2): 99.9±0.2% and 97.1±0.8% and 86.6±1.5% | % INTACT STARTING SPECIES BY INCUBATION TIME | 3 h (FIG. 2): 99.3±0.6% and 98.8±0.9% and 98.7±0.8% and 96.2±0.6% and 90.7±1.7% and 55.7±3.8% | stability to transchelation by EDTA [2]: susceptible to transchelation | biodistribution Bladder ([3]; 10 min): 2.50 ± 0.48 | biodistribution Blood ([3]; 10 min): 5.11 ± 0.90 | biodistribution Bone ([3]; 10 min): 0.43 ± 0.10 | biodistribution Gall Bladder ([3]; 10 min): 1.57 ± 0.25 | biodistribution Heart ([3]; 10 min): 2.17 ± 0.62 | biodistribution Kidney ([3]; 10 min): 14.44 ± 5.88 | biodistribution Large Intestine ([3]; 10 min): 0.43 ± 0.13 | biodistribution Liver ([3]; 10 min): 0.88 ± 0.49 | biodistribution Lung ([3]; 10 min): 2.16 ± 1.08 | biodistribution Muscle ([3]; 10 min): 0.73 ± 0.56 | biodistribution Small Intestine ([3]; 10 min): 0.94 ± 0.16 | biodistribution Spleen ([3]; 10 min): 0.37 ± 0.22 | biodistribution Stomach ([3]; 10 min): 0.62 ± 0.28 | biodistribution Tail ([3]; 10 min): 5.13 ± 2.92 | biodistribution Bladder ([3]; 1 h): 2.47 ± 1.30 | biodistribution Blood ([3]; 1 h): 0.10 ± 0.04 | biodistribution Bone ([3]; 1 h): 0.07 ± 0.04 | biodistribution Gall Bladder ([3]; 1 h): 0.47 ± 0.14 | biodistribution Heart ([3]; 1 h): 0.06 ± 0.02 | biodistribution Kidney ([3]; 1 h): 1.39 ± 0.55 | biodistribution Large Intestine ([3]; 1 h): 0.02 ± 0.01 | biodistribution Liver ([3]; 1 h): 0.24 ± 0.07 | biodistribution Lung ([3]; 1 h): 0.14 ± 0.04 | biodistribution Muscle ([3]; 1 h): 0.02 ± 0.01 | biodistribution Small Intestine ([3]; 1 h): 0.35 ± 0.17 | biodistribution Spleen ([3]; 1 h): 0.06 ± 0.02 | biodistribution Stomach ([3]; 1 h): 1.10 ± 0.51 | biodistribution Tail ([3]; 1 h): 0.26 ± 0.05 | biodistribution Bladder ([3]; 4 h): 1.22 ± 0.77 | biodistribution Blood ([3]; 4 h): 0.03 ± 0.01 | biodistribution Bone ([3]; 4 h): 0.04 ± 0.02 | biodistribution Gall Bladder ([3]; 4 h): 0.26 ± 0.15 | biodistribution Heart ([3]; 4 h): 0.03 ± 0.01 | biodistribution Kidney ([3]; 4 h): 1.10 ± 0.44 | biodistribution Large Intestine ([3]; 4 h): 0.62 ± 0.55 | biodistribution Liver ([3]; 4 h): 0.12 ± 0.03 | biodistribution Lung ([3]; 4 h): 0.04 ± 0.02 | biodistribution Muscle ([3]; 4 h): 0.01 ± 0.01 | biodistribution Small Intestine ([3]; 4 h): 0.04 ± 0.02 | biodistribution Spleen ([3]; 4 h): 0.03 ± 0.01 | biodistribution Stomach ([3]; 4 h): 0.06 ± 0.02 | biodistribution Tail ([3]; 4 h): 0.14 ± 0.08 | biodistribution Bladder ([3]; 12 h): 0.69 ± 0.31 | biodistribution Blood ([3]; 12 h): 0.01 ± 0.00 | biodistribution Bone ([3]; 12 h): 0.03 ± 0.01 | biodistribution Gall Bladder ([3]; 12 h): 0.16 ± 0.14 | biodistribution Heart ([3]; 12 h): 0.02 ± 0.00 | biodistribution Kidney ([3]; 12 h): 0.36 ± 0.13 | biodistribution Large Intestine ([3]; 12 h): 0.07 ± 0.05 | biodistribution Liver ([3]; 12 h): 0.06 ± 0.02 | biodistribution Lung ([3]; 12 h): 0.02 ± 0.01 | biodistribution Muscle ([3]; 12 h): 0.01 ± 0.00 | biodistribution Small Intestine ([3]; 12 h): 0.01 ± 0.01 | biodistribution Spleen ([3]; 12 h): 0.02 ± 0.01 | biodistribution Stomach ([3]; 12 h): 0.01 ± 0.00 | biodistribution Tail ([3]; 12 h): 0.13 ± 0.05 | biodistribution Bladder ([3]; 24 h): 0.56 ± 0.41 | biodistribution Blood ([3]; 24 h): 0.02 ± 0.02 | biodistribution Bone ([3]; 24 h): 0.06 ± 0.01 | biodistribution Gall Bladder ([3]; 24 h): 0.23 ± 0.21 | biodistribution Heart ([3]; 24 h): 0.02 ± 0.01 | biodistribution Kidney ([3]; 24 h): 1.12 ± 0.33 | biodistribution Large Intestine ([3]; 24 h): 0.02 ± 0.01 | biodistribution Liver ([3]; 24 h): 0.11 ± 0.02 | biodistribution Lung ([3]; 24 h): 0.04 ± 0.01 | biodistribution Muscle ([3]; 24 h): 0.01 ± 0.00 | biodistribution Small Intestine ([3]; 24 h): 0.02 ± 0.01 | biodistribution Spleen ([3]; 24 h): 0.02 ± 0.01 | biodistribution Stomach ([3]; 24 h): 0.01 ± 0.01 | biodistribution Tail ([3]; 24 h): 0.08 ± 0.02 | clearance route [3]: clears exclusively through the kidneys | stability in human serum (ITLC and SEC) [1]: stable in serum over 7 days

O=C1NCCCN2CCCCN3CCCNC(=O)c4cccc(=O)n4[O][89Zr]([O]n4c1cccc4=O)([O]n1c(cccc1=O)C2=O)[O]n1c(cccc1=O)C3=O [^89Zr-HOPO]
% INTACT STARTING SPECIES BY INCUBATION TIME | 1 h (FIG. 2): 99.8±0.4% and 99.3±1.3% and 99.0±1.8% | % INTACT STARTING SPECIES BY INCUBATION TIME | 7 d (FIG. 2): 99.6±0.7% and 99.2±1.5% | % INTACT STARTING SPECIES BY INCUBATION TIME | INITIAL (FIG. 2): 99.7±0.6% and 99.5±0.9% | partition coefficient (lipophilicity) [4]: more lipophilic than ^89Zr-DFO | stability to transchelation by EDTA [2]: remains intact for the full 7 days | biodistribution Bladder ([3]; 10 min): 2.04 ± 1.06 | biodistribution Blood ([3]; 10 min): 3.24 ± 0.66 | biodistribution Bone ([3]; 10 min): 1.04 ± 0.44 | biodistribution Gall Bladder ([3]; 10 min): 6.61 ± 2.87 | biodistribution Heart ([3]; 10 min): 1.57 ± 0.22 | biodistribution Kidney ([3]; 10 min): 9.46 ± 2.71 | biodistribution Large Intestine ([3]; 10 min): 0.26 ± 0.15 | biodistribution Liver ([3]; 10 min): 3.29 ± 0.75 | biodistribution Lung ([3]; 10 min): 1.07 ± 0.17 | biodistribution Muscle ([3]; 10 min): 0.36 ± 0.06 | biodistribution Small Intestine ([3]; 10 min): 5.99 ± 1.18 | biodistribution Spleen ([3]; 10 min): 0.31 ± 0.04 | biodistribution Stomach ([3]; 10 min): 1.22 ± 0.39 | biodistribution Tail ([3]; 10 min): 4.25 ± 1.46 | Blood/Bone ratio ([3]; 1 h): 0.6 ± 0.4 | Muscle/Bone ratio ([3]; 1 h): 0.34 ± 0.15 | biodistribution Bladder ([3]; 1 h): 0.73 ± 0.36 | biodistribution Blood ([3]; 1 h): 0.17 ± 0.10 | biodistribution Bone ([3]; 1 h): 0.29 ± 0.09 | biodistribution Gall Bladder ([3]; 1 h): 6.94 ± 3.38 | biodistribution Heart ([3]; 1 h): 0.12 ± 0.06 | biodistribution Kidney ([3]; 1 h): 1.05 ± 0.51 | biodistribution Large Intestine ([3]; 1 h): 0.09 ± 0.06 | biodistribution Liver ([3]; 1 h): 0.22 ± 0.09 | biodistribution Lung ([3]; 1 h): 0.17 ± 0.09 | biodistribution Muscle ([3]; 1 h): 0.10 ± 0.03 | biodistribution Small Intestine ([3]; 1 h): 1.11 ± 0.35 | biodistribution Spleen ([3]; 1 h): 0.09 ± 0.03 | biodistribution Stomach ([3]; 1 h): 0.30 ± 0.15 | biodistribution Tail ([3]; 1 h): 0.81 ± 0.34 | Blood/Bone ratio ([3]; 4 h): 0.2 ± 0.2 | Muscle/Bone ratio ([3]; 4 h): 0.4 ± 0.3 | biodistribution Bladder ([3]; 4 h): 0.58 ± 0.27 | biodistribution Blood ([3]; 4 h): 0.05 ± 0.04 | biodistribution Bone ([3]; 4 h): 0.23 ± 0.12 | biodistribution Gall Bladder ([3]; 4 h): 1.00 ± 0.41 | biodistribution Heart ([3]; 4 h): 0.06 ± 0.01 | biodistribution Kidney ([3]; 4 h): 0.40 ± 0.14 | biodistribution Large Intestine ([3]; 4 h): 7.17 ± 2.15 | biodistribution Liver ([3]; 4 h): 0.13 ± 0.01 | biodistribution Lung ([3]; 4 h): 0.08 ± 0.01 | biodistribution Muscle ([3]; 4 h): 0.09 ± 0.06 | biodistribution Small Intestine ([3]; 4 h): 0.12 ± 0.13 | biodistribution Spleen ([3]; 4 h): 0.06 ± 0.01 | biodistribution Stomach ([3]; 4 h): 0.50 ± 0.74 | biodistribution Tail ([3]; 4 h): 0.29 ± 0.18 | biodistribution Bladder ([3]; 12 h): 0.54 ± 0.26 | biodistribution Blood ([3]; 12 h): 0.02 ± 0.00 | biodistribution Bone ([3]; 12 h): 0.25 ± 0.07 | biodistribution Gall Bladder ([3]; 12 h): 2.45 ± 1.02 | biodistribution Heart ([3]; 12 h): 0.06 ± 0.01 | biodistribution Kidney ([3]; 12 h): 0.53 ± 0.23 | biodistribution Large Intestine ([3]; 12 h): 0.10 ± 0.03 | biodistribution Liver ([3]; 12 h): 0.09 ± 0.02 | biodistribution Lung ([3]; 12 h): 0.06 ± 0.01 | biodistribution Muscle ([3]; 12 h): 0.06 ± 0.01 | biodistribution Small Intestine ([3]; 12 h): 0.02 ± 0.01 | biodistribution Spleen ([3]; 12 h): 0.05 ± 0.01 | biodistribution Stomach ([3]; 12 h): 0.01 ± 0.00 | biodistribution Tail ([3]; 12 h): 0.11 ± 0.04 | Blood/Bone ratio ([3]; 1 d): 0.12 ± 0.02 | Muscle/Bone ratio ([3]; 1 d): 0.35 ± 0.09 | biodistribution Bladder ([3]; 24 h): 0.28 ± 0.14 | biodistribution Blood ([3]; 24 h): 0.02 ± 0.00 | biodistribution Bone ([3]; 24 h): 0.17 ± 0.03 | biodistribution Gall Bladder ([3]; 24 h): 1.15 ± 0.59 | biodistribution Heart ([3]; 24 h): 0.07 ± 0.01 | biodistribution Kidney ([3]; 24 h): 0.51 ± 0.29 | biodistribution Large Intestine ([3]; 24 h): 0.03 ± 0.02 | biodistribution Liver ([3]; 24 h): 0.06 ± 0.03 | biodistribution Lung ([3]; 24 h): 0.06 ± 0.05 | biodistribution Muscle ([3]; 24 h): 0.06 ± 0.01 | biodistribution Small Intestine ([3]; 24 h): 0.02 ± 0.00 | biodistribution Spleen ([3]; 24 h): 0.06 ± 0.01 | biodistribution Stomach ([3]; 24 h): 0.02 ± 0.00 | biodistribution Tail ([3]; 24 h): 0.05 ± 0.01 | Blood/Bone ratio ([3]; […]): 3.1 ± 1.5 | Muscle/Bone ratio ([3]; […]): 0.35 ± 0.16 | clearance route [3]: cleared through both renal and hepatobiliary excretion | stability in human serum (ITLC and SEC) [1]: stable in serum over 7 days
